Measured values as given in patent publication US11378572B2, “Therapeutic agent for immune cell migration-caused disease and method for screening same” (ZYMEDI CO., LTD., priority 2017, dated 2022).

Tested on: pulmonary arterial hypertension (PAH) model
Experiment: Monocrotaline pulmonary arterial hypertension (PAH) model, BC-KI-00053
Format: in vivo, SD rats
Protocol: In order to induce PAH in 6-week-old female SD rats (Oriental Bio), 60 mg/kg of MCT (monocrotaline), a substance that causes pulmonary hypertension through pulmonary arterial injury, was injected subcutaneously. Then animals were divided into four groups (5 animals per group), and orally administered with vehicle, sildenafil (25 mg/kg, once daily) or BC-KI-00053 (25 or 50 mg/kg, dissolved in vehicle, once daily) for 3 weeks. Vehicle was corn oil:polyethylene glycol 400:Tween 80:methyl cellulose (1%)=20:30:1:49.
Three weeks later, rats were anesthetized with isoflurane, and blood flow and pressure were measured using an MPVS cardiovascular pressure and volume system (model name: MPVS Ultra, manufactured by Millar Instruments). Right ventricular systolic pressure (RVESP) and diastolic pressure, left ventricular systolic pressure and diastolic pressure were measured using a dedicated catheter (Mikro-Tip rat pressure catheter, manufactured by Millar Instruments). Cardiac output was measured using a perivascular blood flow probe (Transonic® Flowprobes, manufactured by […]), and experimental techniques were performed in the same manner as described in the literature: Pacher P, Nagayama T, Mukhopadhyay P, Batkai S, Kass D A. Measurement of cardiac function using pressure-volume conductance catheter technique in mice and rats. Nat Protoc 2008, 3(9):1422-34.
IHC staining for CD68, a monocyte/macrophage marker, was performed using lung tissues from each experimental group. Collected lungs were fixed in PFA (paraformaldehyde) according to the conventional procedure, and then embedded in paraffin through water washing, dehydration, and tissue clearing processes. Lung tissue paraffin blocks of rats were cut to a thickness of […] and slides were prepared. Thereafter, staining was performed as follows. First, three times for 5 minutes xylene treatment, 2 minutes in 100% ethanol twice, 95% ethanol, 90% ethanol, 70% ethanol, DW treatment for 2 minutes in this order and washed with PBS for 5 minutes (2 times). After treatment with 0.3% H2O2 (10 minutes), slides were washed twice with PBS for 5 minutes. Then slides were soaked in 0.01M citrate buffer of pH 6.0 and microwaved for 3 minutes and 30 seconds, then antigen retrieval of cooling for 10 seconds and reheating for 10 seconds was repeated for 10 minutes followed by 20 minutes of cooling at room temperature. Afterwards, slides were washed three times for 5 minutes with PBS-T (0.03% Triton-X). After 30 minutes blocking (2% BSA & 2% goat serum in PBS) at 4° C. anti-CD68 antibody (1:200, Abcam, ab31630) was treated overnight at 4° C. After washing three times with PBS-T for 5 minutes, slides were treated with polymer-HRP anti-mouse envision kit (DAKO) for 1 hour at 4° C. After washing 3 times with PBS-T for 5 minutes, 1 ml of DAB substrate buffer and 20 ul of DAB chromogen were mixed and treated with tissue. After 10 minutes when colors developed, slides were washed twice with tertiary distilled water. Stained tissues were treated with Mayer's hematoxylin (Sigma) for 1 minute, and then treated in the order of 70% ethanol, 90% ethanol, 95% ethanol, and 100% ethanol, twice for 2 minutes for each solution. Finally, after three times of xylene treatment for 5 minutes, cover slides were mounted using a mounting solution, and observed with an optical microscope.

[1] = 25 or 50 mg/kg oral once daily 3 weeks

SMILES: COc1ccc(CCN(Cc2ccc(C(=O)O)cc2)c2nc3cccc(F)c3s2)cc1 [BC-KI-00053, 4-({(7-fluorobenzo[d]thiazol-2-yl)[2-(4-methoxyphenyl)ethyl]amino}methyl)benzoic acid]
- left ventricular end systolic pressure (LVESP) (50 mg/kg, not statistically significant): increased
- left ventricular end systolic pressure (LVESP) [1]: no decrease
- lung tissue infiltration of monocytes/macrophages (CD68 IHC) [1]: clearly reduced
- RVESP (right ventricular systolic pressure) (25 or 50 mg/kg oral once daily 3 weeks, concentration dependent): significantly reduced
- reduction of lung monocyte/macrophage infiltration compared with sildenafil (CD68 IHC): noticeably superior to sildenafil
- tendency to affect systemic artery pressure compared with sildenafil (rat, in vivo): lower tendency
